We go through seven compounds from ChEMBL document CHEMBL3272096, “Semisynthetic cephalosporins. Synthesis and structure-activity relationships of 7-sulfonylacetamido-3-cephem-4-carboxylic acids” (1976).

≈ marks a conversion by molar mass, not a printed value. Calls of active or inactive are those of the source. No cut-off for these calls is given here.

The subject of assay [1] is Pseudomonas aeruginosa. Kind of assay: Antibacterial activity against Pseudomonas aeruginosa by two-fold agar dilution method. The format is functional, organism-based.
Assay [2] concerns Staphylococcus aureus. Kind of assay: Antibacterial activity against Staphylococcus aureus 23390 by two-fold agar dilution method. The format is functional, organism-based. A general note: In agar dilution, organisms are placed on agar that contains the substance at set levels.
Assay [3] relates to Klebsiella pneumoniae. The experiment in a line: Antibacterial activity against Klebsiella pneumoniae 4200 by two-fold agar dilution method. The format is functional.
For assay [4], the system named is Klebsiella aerogenes. Kind of assay: Antibacterial activity against Enterobacter aerogenes ATCC 13048 by two-fold agar dilution method. The class given is functional.
Assay [5] relates to Escherichia coli. Kind of assay: Antibacterial activity against Escherichia coli 12140 by two-fold agar dilution method. The format is functional.
The subject of assay [6] is Shigella flexneri. The experiment in a line: Antibacterial activity against Shigella paradysenteriae HH 117 by two-fold agar dilution method. The class given is functional.
Assay [7] deals with Escherichia coli. The experiment in a line: Antibacterial activity against Escherichia coli 12140 infected in sc dosed mouse assessed as host protection administered at 1 and 5 hrs post-infection. The class given is functional. Conditions: Escherichia coli, 12140, sc; read-out: PD50.
For assay [8], the system named is Staphylococcus aureus. Kind of assay: Antibacterial activity against penicillin G-resistant Staphylococcus aureus HH 127 by two-fold agar dilution method. The format is functional.
Assay [9] deals with Enterococcus faecalis. The experiment in a line: Antibacterial activity against Streptococcus faecalis by two-fold agar dilution method. The class given is functional.
Assay [10] has as its system Salmonella paratyphi. Kind of assay: Antibacterial activity against Salmonella paratyphi ATCC 12176 by two-fold agar dilution method. Conditions: Salmonella enterica. The format is functional, Salmonella enterica subsp. enterica serovar Paratyphi A.

A word on the MIC: it is the lowest concentration found to suppress growth. Consider `CS(=O)(=O)CC(=O)N[C@@H]1C(=O)N2C(C(=O)[O-])=C(CSc3nnn[nH]3)CS[C@H]12.[Na+]`, for which the outcome in assay [1] was inactive. In addition, the result in assay [2] was Active. For the same compound, the MIC in assay [3] was 3.1 µg/mL; in assay [4], more than 200 µg/mL; in assay [5], 50 µg/mL; in assay [6], 25 µg/mL; in assay [8], 6.2 µg/mL; in assay [9], more than 13 µg/mL. This compound also returned an MIC in assay [10] of 3.1 µg/mL. Also, in assay [7], the ED50 stood at 45 mg/kg.
On to `Cn1nnnc1SCC1=C(C(=O)[O-])N2C(=O)[C@@H](NC(=O)CS(C)(=O)=O)[C@H]2SC1.[Na+]`, for which, in [1], the result was inactive. Besides, the result in assay [2] was Active. The MIC in assay [3] is 1.6 µg/mL; in assay [4], 25 µg/mL; in assay [5], 1.6 µg/mL; in assay [6] it was 1.6 µg/mL; in assay [8], 1.6 µg/mL; in assay [9], more than 13 µg/mL. In assay [10], this compound displayed a minimal inhibitory concentration (MIC) of 0.8 µg/mL. The ED50 in assay [7] was 7 mg/kg.
With `CCS(=O)(=O)CC(=O)N[C@@H]1C(=O)N2C(C(=O)O)=C(CSc3nnc(C)s3)CS[C@H]12`, in assay [1], the result was inactive. Moreover, the outcome in assay [2] was Active. The MIC in assay [3] was 1.6 µg/mL (≈ 3.34 µM); in assay [4], 100 µg/mL (≈ 209 µM); in assay [5], 3.1 µg/mL (≈ 6.48 µM); in assay [6] it was 6.2 µg/mL (≈ 13 µM); in [8] it was 0.4 µg/mL (≈ 0.836 µM); in assay [9], more than 13 µg/mL. This compound yielded an MIC in [10] of 1.6 µg/mL (≈ 3.34 µM). Also, in assay [7], the ED50 was determined as 8 mg/kg.
On to `Cn1nnnc1SCC1=C(C(=O)O)N2C(=O)[C@@H](NC(=O)CS(=O)(=O)c3ccccc3)[C@H]2SC1`, for which the outcome in assay [1] was inactive. Further, in assay [2], the outcome was Active. Besides, the minimum inhibitory concentration (MIC) in assay [3] is 3.1 µg/mL (≈ 6.07 µM); in assay [4], 13 µg/mL (≈ 25.5 µM); in [5], 3.1 µg/mL (≈ 6.07 µM); in assay [6], 1.6 µg/mL (≈ 3.13 µM); in assay [8], 0.4 µg/mL (≈ 0.783 µM); in assay [9], more than 13 µg/mL. In [10], this compound yielded an MIC of 6.2 µg/mL (≈ 12.1 µM). The ED50 in assay [7] worked out at 25 mg/kg.
For the compound `Cn1nnnc1SCC1=C(C(=O)[O-])N2C(=O)[C@@H](NC(=O)CS(N)(=O)=O)[C@H]2SC1.[Na+]`, the outcome in [1] was inactive. Moreover, in [2], the outcome was Active. Further, the MIC in [3] is 13 µg/mL; in [4] it was 13 µg/mL; in assay [5], 3.1 µg/mL; in assay [6], 3.1 µg/mL; in assay [8], 1.6 µg/mL; in assay [9] it was more than 13 µg/mL. This compound returned a minimal inhibitory concentration (MIC) in assay [10] of 1.6 µg/mL. Also, the ED50 in assay [7] amounted to 38 mg/kg.
For `CCCS(=O)(=O)CC(=O)N[C@@H]1C(=O)N2C(C(=O)O)=C(COC(C)=O)CS[C@H]12`, the outcome in assay [1] was inactive. The outcome in assay [2] was Active. For the same compound, the MIC in [3] is 6.2 µg/mL (≈ 14.7 µM); in assay [4], 200 µg/mL (≈ 476 µM); in [5], 13 µg/mL (≈ 30.9 µM); in assay [6] it was 13 µg/mL (≈ 30.9 µM); in assay [8], 0.8 µg/mL (≈ 1.9 µM); in [9], more than 13 µg/mL. In assay [10], the lowest concentration to inhibit growth (MIC) was 3.1 µg/mL (≈ 7.37 µM). In addition, the ED50 in [7] amounted to 56 mg/kg.
Regarding `Cn1nnnc1SCC1=C(C(=O)[O-])N2C(=O)[C@@H](NC(=O)CS(=O)(=O)C(F)(F)F)[C@H]2SC1.[Na+]`, the result in assay [1] was inactive. In addition, the outcome in [2] was Active. Besides, the MIC is 3.1 µg/mL in assay [3]; 3.1 µg/mL in assay [4]; 1.6 µg/mL in assay [5]; 0.8 µg/mL in assay [6]; 1.6 µg/mL in assay [8]; more than 13 µg/mL in assay [9]. The lowest concentration to inhibit growth in assay [10] (MIC) was 1.6 µg/mL. For the same compound, the ED50 in [7] amounted to 17 mg/kg.
